Values quoted from earlier work in US12533348B2, “Ferroportin-inhibitors for the use in the treatment of transfusion-dependent beta-thalassemia (TDT)” (Vifor (International) AG, priority 2019, dated 2026).

Tested on: guinea pigs
Conditions: intravenous administration, cited from earlier work

## O=C(NCc1ncccc1F)c1csc(CCNCc2nc3ccccc3[nH]2)n1 [VIT-2653]
Guinea pigs
  NTBI and Hb levels following exchange transfusion: significantly improved
  total iron in kidneys following transfusion: can be reduced
Transfused guinea pigs
  occurrence of changes in plasma creatinine >0.3 mg/dL (indicator of early AKI): significantly reduced
